Measured values published in ChEMBL document CHEMBL5247659, “Design, Structure-Activity Relationships, and In Vivo Evaluation of Potent and Brain-Penetrant Imidazo[1,2-b]pyridazines as Glycogen Synthase Kinase-3β (GSK-3β) Inhibitors” (J Med Chem, 2023).
In brackets after ≈: the same amount, converted by molar mass.

Assays:
[1] = Unbound brain-to-plasma concentration ratio in triple transgenic C57BL6 alzheimer disease mouse model at 30 mg/kg, po measured after 5 hrs; type: ADME, organism-based; details: read-out: K(p,uu,brain)
[2] = Oral bioavailability in 8 hr fasted C57BL6 mouse at 10 mg/kg; type: ADME, organism-based; details: in vivo
[3] = target: Glycogen synthase kinase-3 alpha (Homo sapiens, UniProt P49840); experiment: Inhibition of full length GST-tagged human recombinant GSK3-alpha using FL-KRREILSRRP[ps]ERYR-NH2 as substrate incubated for 20 hrs
[4] = target: Tyrosine-protein kinase TXK (Homo sapiens, UniProt P42681); experiment: Inhibition of TXK (unknown origin)
[5] = Permeability across apical to basolateral side in human Caco-2 cells at 3 uM incubated for 2 hrs by LC-MS/MS analysis; type: ADME, cell-based; details: read-out: permeability
[6] = system: Mus musculus; experiment: Antialzheimer activity against triple transgenic C57BL6 mouse model assessed as reduction in tau phosphorylation at S396 at 30 mg/kg, po measured 5 hrs post dose by ELISA relative to control; type: functional; parameters: scale not given: the % may be the effect or the level left
[7] = Unbound fraction in triple transgenic C57BL6 alzheimer disease model mouse brain homogenate at 30 mg/kg, po measured after 5 hrs; type: ADME, organism-based
[8] = Cmax in 8 hr fasted C57BL6 mouse at 10 mg/kg, po; type: ADME, organism-based; parameters: dose 10 mg/kg, route po; details: in vivo
[9] = Half life in 8 hr fasted C57BL6 mouse at 2 mg/kg, iv; type: ADME, organism-based; details: in vivo
[10] = Solubility of compound in fasted state simulated intestinal fluid of pH 6.5 at 1 mg/ml measured after 18 to 24 hrs by HPLC-UV based analysis; type: ADME; details: time 18-24 hrs
[11] = Plasma protein binding in mouse assessed as unbound fraction at 10 uM measured for 5 hrs by equilibrium dialysis based LC-MS/MS analysis; type: ADME, cell-free
[12] = Inhibition of N-terminal 6-His tagged human recombinant GSK3-beta H355L mutant using FL-KRREILSRRP[ps]ERYR-NH2 as substrate incubated for 20 hrs
[13] = Plasma protein binding in human assessed as unbound fraction at 10 uM measured for 5 hrs by equilibrium dialysis based LC-MS/MS analysis; type: ADME, cell-free
[14] = target: Non-receptor tyrosine-protein kinase TYK2 (Homo sapiens, UniProt P29597); experiment: Inhibition of TYK2 (unknown origin)
[15] = target: Interleukin-1 receptor-associated kinase 1 (Homo sapiens, UniProt P51617); experiment: Inhibition of IRAK1 (unknown origin)
[16] = Inhibition of tau 4R1N phosphorylation (unknown origin) at S396 residue transfected in human U2OS cells coexpressing GFP-tagged beta catenin incubated overnight by high content imaging assay
[17] = Solubility of compound in fed state simulated intestinal fluid of pH 5 at 1 mg/ml measured after 18 to 24 hrs by HPLC-UV based analysis; type: ADME; details: time 18-24 hrs
[18] = target: Aurora kinase A (Mus musculus, UniProt P97477); experiment: Inhibition of mouse AURA
[19] = target: P-glycoprotein (ABCB1) (Homo sapiens, UniProt P08183); experiment: Substrate activity at P-glycoprotein in human Caco-2 cells assessed as efflux ratio of permeability across basolateral to apical side over apical to basolateral side at 3 uM incubated for 2 hrs by LC-MS/MS analysis; type: ADME, cell-based
[20] = AUC tot in 8 hr fasted C57BL6 mouse at 10 mg/kg, po; type: ADME, organism-based; parameters: dose 10 mg/kg, route po; details: in vivo
[21] = Permeability across basolateral to apical side in human Caco-2 cells at 3 uM incubated for 2 hrs by LC-MS/MS analysis; type: ADME, cell-based; details: read-out: permeability
[22] = target: Mitogen-activated protein kinase 14 (Homo sapiens, UniProt Q16539); experiment: Inhibition of p38alpha (unknown origin)
[23] = target: Casein kinase II subunit alpha (Homo sapiens, UniProt P68400); experiment: Inhibition of CK2A1 (unknown origin)
[24] = MRT in 8 hr fasted C57BL6 mouse at 2 mg/kg, iv; type: ADME, organism-based; details: in vivo
[25] = target: Cyclin-dependent kinase 2 (Homo sapiens, UniProt P24941); experiment: Inhibition of CDK2 (unknown origin)
[26] = target: Tyrosine-protein kinase JAK2 (Homo sapiens, UniProt O60674); experiment: Inhibition of JAK2 (unknown origin)
[27] = target: Tyrosine-protein kinase Lck (Homo sapiens, UniProt P06239); experiment: Inhibition of LCK (unknown origin)
[28] = target: Protein kinase C theta type (Homo sapiens, UniProt Q04759); experiment: Inhibition of PKCtheta (unknown origin)
[29] = target: Mast/stem cell growth factor receptor Kit (Homo sapiens, UniProt P10721); experiment: Inhibition of cKIT (unknown origin)
[30] = target: AP2-associated protein kinase 1 (Homo sapiens, UniProt Q2M2I8); experiment: Inhibition of AAK1 (unknown origin)
[31] = target: Tyrosine-protein kinase ITK/TSK (Homo sapiens, UniProt Q08881); experiment: Inhibition of ITK (unknown origin)
[32] = target: Serine/threonine-protein kinase pim-1 (Homo sapiens, UniProt P11309); experiment: Inhibition of PIM1 (unknown origin)
[33] = Aqueous solubility of compound in potassium phosphate buffer at pH 1 at 1 mg/ml measured after 18 to 24 hrs by HPLC-UV based analysis; type: physicochemical; details: time 18-24 hrs
[34] = target: Tyrosine-protein kinase SYK (Homo sapiens, UniProt P43405); experiment: Inhibition of SYK (unknown origin)
[35] = Permeability of compound at pH 7.4 incubated for 4 hrs by PAMPA assay; type: ADME; details: read-out: permeability
[36] = target: Tyrosine-protein kinase BTK (Homo sapiens, UniProt Q06187); experiment: Inhibition of BTK (unknown origin)
[37] = target: Casein kinase II subunit alpha' (Homo sapiens, UniProt P19784); experiment: Inhibition of CK2A2 (unknown origin)
[38] = target: Ribosomal protein S6 kinase alpha-1 (Homo sapiens, UniProt Q15418); experiment: Inhibition of RSK1 (unknown origin)
[39] = target: Platelet-derived growth factor receptor beta (Homo sapiens, UniProt P09619); experiment: Inhibition of PDGFRbeta (unknown origin)
[40] = Ratio of drug level in brain to plasma of triple transgenic C57BL6 alzheimer disease mouse at 30 mg/kg, po measured after 5 hrs; type: ADME, organism-based; details: read-out: BPR
[41] = Drug exposure in triple transgenic C57BL6 alzheimer disease mouse plasma at 30 mg/kg, po measured after 5 hrs; type: ADME, organism-based
[42] = Permeability of compound at pH 5.5 incubated for 4 hrs by PAMPA assay; type: ADME; details: read-out: permeability
[43] = Drug exposure in triple transgenic C57BL6 alzheimer disease mouse brain at 30 mg/kg, po measured after 5 hrs; type: ADME, organism-based; details: read-out: Ct
[44] = target: Tyrosine-protein kinase Lyn (Homo sapiens, UniProt P07948); experiment: Inhibition of LynA (unknown origin)
[45] = Metabolic stability in human liver microsomes assessed as parent compound remaining at 0.5 uM incubated for 10 mins by LC-MS/MS analysis; type: ADME, Microsome; details: read-out: Stability
[46] = target: Tyrosine-protein kinase JAK1 (Homo sapiens, UniProt P23458); experiment: Inhibition of JAK1 (unknown origin)
[47] = target: Cytoplasmic tyrosine-protein kinase BMX (Homo sapiens, UniProt P51813); experiment: Inhibition of BMX (unknown origin)
[48] = target: Aurora kinase B (Homo sapiens, UniProt Q96GD4); experiment: Inhibition of Aurora B (unknown origin)
[49] = Clearance in 8 hr fasted C57BL6 mouse at 2 mg/kg, iv; type: ADME, organism-based; details: in vivo
[50] = Volume of distribution at steady state in 8 hr fasted C57BL6 mouse at 2 mg/kg, iv; type: ADME, organism-based; details: in vivo, read-out: Vdss
[51] = target: Cyclin-dependent kinase 5 (Homo sapiens, UniProt Q00535); experiment: Inhibition of CDK5 (unknown origin)
[52] = Aqueous solubility of compound in potassium phosphate buffer at pH 7.4 at 1 mg/ml measured after 18 to 24 hrs by HPLC-UV based analysis; type: physicochemical; details: time 18-24 hrs
[53] = target: MAP kinase-activated protein kinase 2 (Homo sapiens, UniProt P49137); experiment: Inhibition of MK2 (unknown origin)
[54] = target: Insulin-like growth factor 1 receptor (Homo sapiens, UniProt P08069); experiment: Inhibition of IGF1R (unknown origin)
[55] = target: Interleukin-1 receptor-associated kinase 4 (Homo sapiens, UniProt Q9NWZ3); experiment: Inhibition of IRAK4 (unknown origin)
[56] = Metabolic stability in mouse liver microsomes assessed as parent compound remaining at 0.5 uM incubated for 10 mins by LC-MS/MS analysis; type: ADME, Microsome; details: read-out: Stability

Chain of Tyrosine-protein kinase JAK1 (P23458 whole entry): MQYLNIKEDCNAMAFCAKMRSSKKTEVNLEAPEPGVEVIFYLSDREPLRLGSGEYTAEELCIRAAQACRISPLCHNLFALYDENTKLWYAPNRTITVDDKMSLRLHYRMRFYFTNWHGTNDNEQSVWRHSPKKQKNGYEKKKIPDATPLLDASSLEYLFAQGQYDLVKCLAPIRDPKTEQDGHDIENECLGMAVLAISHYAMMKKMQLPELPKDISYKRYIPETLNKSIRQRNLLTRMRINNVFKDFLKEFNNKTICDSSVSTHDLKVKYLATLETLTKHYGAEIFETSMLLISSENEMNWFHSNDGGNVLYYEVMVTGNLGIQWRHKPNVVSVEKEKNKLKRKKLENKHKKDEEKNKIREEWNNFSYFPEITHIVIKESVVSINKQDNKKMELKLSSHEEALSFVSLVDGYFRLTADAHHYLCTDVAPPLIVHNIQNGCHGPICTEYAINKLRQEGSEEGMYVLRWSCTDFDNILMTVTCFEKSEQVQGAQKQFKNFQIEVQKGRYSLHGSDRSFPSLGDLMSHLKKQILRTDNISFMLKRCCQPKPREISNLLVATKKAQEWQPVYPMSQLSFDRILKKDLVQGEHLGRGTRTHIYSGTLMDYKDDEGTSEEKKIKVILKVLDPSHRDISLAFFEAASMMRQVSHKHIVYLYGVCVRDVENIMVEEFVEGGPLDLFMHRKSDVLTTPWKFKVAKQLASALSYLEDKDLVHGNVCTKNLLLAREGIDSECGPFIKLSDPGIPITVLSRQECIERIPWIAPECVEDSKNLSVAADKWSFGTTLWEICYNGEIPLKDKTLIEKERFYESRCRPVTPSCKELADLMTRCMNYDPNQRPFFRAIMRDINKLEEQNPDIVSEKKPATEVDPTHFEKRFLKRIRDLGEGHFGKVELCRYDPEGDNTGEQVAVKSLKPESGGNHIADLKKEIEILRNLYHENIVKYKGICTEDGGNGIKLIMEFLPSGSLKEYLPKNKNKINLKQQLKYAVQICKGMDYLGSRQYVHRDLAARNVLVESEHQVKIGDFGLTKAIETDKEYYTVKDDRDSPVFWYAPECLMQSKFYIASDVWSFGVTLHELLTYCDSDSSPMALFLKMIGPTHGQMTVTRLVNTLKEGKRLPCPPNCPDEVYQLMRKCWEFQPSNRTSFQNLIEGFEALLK
Chain of Mast/stem cell growth factor receptor Kit (P10721 whole entry): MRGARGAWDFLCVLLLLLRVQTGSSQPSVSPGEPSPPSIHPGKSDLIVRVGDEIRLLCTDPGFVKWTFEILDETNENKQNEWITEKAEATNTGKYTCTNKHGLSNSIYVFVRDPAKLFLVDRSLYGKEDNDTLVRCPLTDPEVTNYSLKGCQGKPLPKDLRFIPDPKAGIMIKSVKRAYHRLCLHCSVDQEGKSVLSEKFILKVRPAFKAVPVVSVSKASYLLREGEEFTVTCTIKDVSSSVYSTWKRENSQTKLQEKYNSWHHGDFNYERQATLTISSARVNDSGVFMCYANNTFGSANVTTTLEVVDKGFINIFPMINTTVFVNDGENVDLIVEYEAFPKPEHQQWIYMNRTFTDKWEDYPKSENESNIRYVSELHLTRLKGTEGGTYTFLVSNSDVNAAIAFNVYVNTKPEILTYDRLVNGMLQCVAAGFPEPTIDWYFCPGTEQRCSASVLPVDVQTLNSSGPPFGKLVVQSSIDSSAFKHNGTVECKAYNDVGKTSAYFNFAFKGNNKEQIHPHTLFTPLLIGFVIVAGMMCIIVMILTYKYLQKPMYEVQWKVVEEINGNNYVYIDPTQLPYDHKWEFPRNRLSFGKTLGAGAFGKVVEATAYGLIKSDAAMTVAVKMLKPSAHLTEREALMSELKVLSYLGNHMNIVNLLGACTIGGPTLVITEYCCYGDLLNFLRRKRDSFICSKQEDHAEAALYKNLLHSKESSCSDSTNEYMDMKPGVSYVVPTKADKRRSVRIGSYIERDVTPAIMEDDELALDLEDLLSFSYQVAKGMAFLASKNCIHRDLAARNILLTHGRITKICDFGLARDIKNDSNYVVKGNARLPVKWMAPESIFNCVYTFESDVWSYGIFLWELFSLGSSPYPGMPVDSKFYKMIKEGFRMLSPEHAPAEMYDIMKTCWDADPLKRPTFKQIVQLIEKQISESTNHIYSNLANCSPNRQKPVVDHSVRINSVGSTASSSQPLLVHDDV
Chain of Aurora kinase B (Q96GD4 whole entry): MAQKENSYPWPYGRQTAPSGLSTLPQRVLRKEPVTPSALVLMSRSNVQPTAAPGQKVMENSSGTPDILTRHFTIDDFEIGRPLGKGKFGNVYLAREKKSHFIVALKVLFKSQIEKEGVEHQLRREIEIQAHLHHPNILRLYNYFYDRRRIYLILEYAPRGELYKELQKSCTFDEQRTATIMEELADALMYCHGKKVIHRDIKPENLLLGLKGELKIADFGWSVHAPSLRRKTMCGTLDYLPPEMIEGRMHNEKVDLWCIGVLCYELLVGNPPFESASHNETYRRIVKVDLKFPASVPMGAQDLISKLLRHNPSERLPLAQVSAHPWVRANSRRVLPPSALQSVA
Chain of AP2-associated protein kinase 1 (Q2M2I8 whole entry): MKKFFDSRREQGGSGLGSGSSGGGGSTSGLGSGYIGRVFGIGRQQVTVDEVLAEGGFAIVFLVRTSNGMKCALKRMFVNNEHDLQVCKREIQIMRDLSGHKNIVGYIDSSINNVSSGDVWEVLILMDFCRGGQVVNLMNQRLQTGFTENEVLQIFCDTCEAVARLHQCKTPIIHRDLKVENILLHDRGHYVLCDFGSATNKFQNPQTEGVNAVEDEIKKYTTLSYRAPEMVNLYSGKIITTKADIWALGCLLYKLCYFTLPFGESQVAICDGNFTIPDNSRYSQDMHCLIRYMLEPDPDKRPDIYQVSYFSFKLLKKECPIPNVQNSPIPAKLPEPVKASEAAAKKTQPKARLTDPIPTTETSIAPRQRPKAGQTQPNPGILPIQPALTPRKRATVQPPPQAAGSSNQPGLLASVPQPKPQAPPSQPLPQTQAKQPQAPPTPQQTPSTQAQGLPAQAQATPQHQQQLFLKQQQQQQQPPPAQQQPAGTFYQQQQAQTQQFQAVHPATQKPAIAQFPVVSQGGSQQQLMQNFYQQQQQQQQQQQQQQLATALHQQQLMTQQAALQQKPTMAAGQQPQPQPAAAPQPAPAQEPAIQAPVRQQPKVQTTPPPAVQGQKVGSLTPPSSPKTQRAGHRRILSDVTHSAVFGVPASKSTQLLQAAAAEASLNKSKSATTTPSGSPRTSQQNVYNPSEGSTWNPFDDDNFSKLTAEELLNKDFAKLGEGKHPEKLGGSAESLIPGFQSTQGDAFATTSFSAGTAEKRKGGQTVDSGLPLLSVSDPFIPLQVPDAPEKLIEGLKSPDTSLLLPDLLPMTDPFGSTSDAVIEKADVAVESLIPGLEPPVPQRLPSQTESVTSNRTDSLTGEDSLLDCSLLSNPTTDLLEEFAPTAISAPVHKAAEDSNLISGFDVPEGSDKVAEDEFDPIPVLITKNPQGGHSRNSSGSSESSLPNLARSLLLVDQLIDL
Chain of Aurora kinase A (P97477 whole entry): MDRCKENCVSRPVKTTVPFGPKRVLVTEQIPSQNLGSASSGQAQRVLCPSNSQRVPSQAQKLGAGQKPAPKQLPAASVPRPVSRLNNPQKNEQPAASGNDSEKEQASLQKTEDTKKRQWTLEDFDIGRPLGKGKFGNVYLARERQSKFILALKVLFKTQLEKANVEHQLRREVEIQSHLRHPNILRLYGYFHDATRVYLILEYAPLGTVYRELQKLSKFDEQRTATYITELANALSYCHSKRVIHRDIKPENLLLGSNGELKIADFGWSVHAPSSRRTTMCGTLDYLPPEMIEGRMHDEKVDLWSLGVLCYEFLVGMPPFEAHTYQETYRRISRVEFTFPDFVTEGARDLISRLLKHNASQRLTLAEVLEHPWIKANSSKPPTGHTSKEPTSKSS
Chain of Tyrosine-protein kinase Lck (P06239 whole entry): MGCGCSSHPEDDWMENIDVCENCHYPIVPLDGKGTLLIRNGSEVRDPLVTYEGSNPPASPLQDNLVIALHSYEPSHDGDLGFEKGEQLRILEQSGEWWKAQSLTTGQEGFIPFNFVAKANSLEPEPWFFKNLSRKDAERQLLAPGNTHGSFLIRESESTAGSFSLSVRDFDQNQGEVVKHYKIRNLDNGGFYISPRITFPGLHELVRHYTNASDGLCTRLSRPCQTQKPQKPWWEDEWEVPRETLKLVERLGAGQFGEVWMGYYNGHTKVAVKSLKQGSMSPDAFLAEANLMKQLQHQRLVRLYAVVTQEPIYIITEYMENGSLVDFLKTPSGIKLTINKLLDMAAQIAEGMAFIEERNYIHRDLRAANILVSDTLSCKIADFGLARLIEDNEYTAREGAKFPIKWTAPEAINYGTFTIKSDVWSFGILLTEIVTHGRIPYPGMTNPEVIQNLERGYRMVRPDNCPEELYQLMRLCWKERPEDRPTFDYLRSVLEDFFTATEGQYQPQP
Chain of Tyrosine-protein kinase ITK/TSK (Q08881 whole entry): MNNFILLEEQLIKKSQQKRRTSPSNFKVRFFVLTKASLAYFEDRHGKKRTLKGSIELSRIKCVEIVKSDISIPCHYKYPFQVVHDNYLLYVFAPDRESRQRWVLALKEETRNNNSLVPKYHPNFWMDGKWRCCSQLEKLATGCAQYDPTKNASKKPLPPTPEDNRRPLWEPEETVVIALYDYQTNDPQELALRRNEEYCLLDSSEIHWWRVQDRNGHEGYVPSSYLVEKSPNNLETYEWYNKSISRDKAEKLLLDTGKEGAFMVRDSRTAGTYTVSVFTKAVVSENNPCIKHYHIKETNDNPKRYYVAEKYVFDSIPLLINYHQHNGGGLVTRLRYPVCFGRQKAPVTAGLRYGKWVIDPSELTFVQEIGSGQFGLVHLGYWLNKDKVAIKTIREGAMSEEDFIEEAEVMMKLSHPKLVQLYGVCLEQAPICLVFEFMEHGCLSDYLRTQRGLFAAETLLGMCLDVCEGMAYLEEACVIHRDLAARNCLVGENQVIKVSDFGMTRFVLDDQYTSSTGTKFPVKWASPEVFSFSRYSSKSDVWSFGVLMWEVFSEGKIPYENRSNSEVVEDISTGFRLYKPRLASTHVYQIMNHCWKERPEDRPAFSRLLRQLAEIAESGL

Structure (SMILES): CC1CN(c2ccncc2NC(=O)c2ccnn3cc(-c4ccccc4)nc23)CCO1 (racemic)
- Kp uu at 5 h [1]: 0.34
- bioavailability [2]: 64%
- IC50 [3]: 0.35 nM
- IC50 [4]: > 2000 nM
- Papp A→B at 2 h, 3 µM [5]: 13.8 ×10⁻⁶ cm/s
- Activity [6]: 52%
- fraction unbound at 5 h [7]: 0.009
- Cmax [8]: 7.8 µM
- half-life [9]: 5.2 h
- solubility [10]: 21 µg/mL (≈ 50.7 µM)
- fraction unbound at 5 h, 10 µM [11]: 0.009
- IC50 [12]: 0.73 nM
- fraction unbound at 5 h, 10 µM [13]: 0.008
- IC50 [14]: > 2000 nM
- IC50 [15]: > 2000 nM
- IC50 [16]: 58 nM
- solubility [17]: 788 µg/mL (≈ 1900 µM)
- IC50 [18]: > 50000 nM
- efflux ratio at 2 h, 3 µM [19]: < 1
- AUC [20]: 68.3 µM·h
- Papp B→A at 2 h, 3 µM [21]: 7.1 ×10⁻⁶ cm/s
- IC50 [22]: > 2000 nM
- IC50 [23]: > 2000 nM
- MRT [24]: 4.8 h
- IC50 [25]: 1400 nM
- IC50 [26]: > 2000 nM
- IC50 [27]: > 2000 nM
- IC50 [28]: 360 nM
- IC50 [29]: > 50000 nM
- IC50 [30]: 200 nM
- IC50 [31]: > 2000 nM
- IC50 [32]: 380 nM
- solubility [33]: 1220 µg/mL (≈ 2940 µM)
- IC50 [34]: > 2000 nM
- Papp at 4 h [35]: 80.6 ×10⁻⁶ cm/s
- IC50 [36]: > 2000 nM
- IC50 [37]: > 2000 nM
- IC50 [38]: > 50000 nM
- IC50 [39]: > 50000 nM
- Kp at 5 h [40]: 0.34
- concentration at 5 h [41]: 3.8 µM
- Papp at 4 h [42]: 100 ×10⁻⁶ cm/s
- concentration at 5 h [43]: 1.3 µM
- IC50 [44]: > 2000 nM
- remaining at 10 min, 0.5 µM [45]: 17%
- IC50 [46]: > 2000 nM
- IC50 [47]: > 2000 nM
- IC50 [48]: > 2000 nM
- clearance [49]: 3.8 mL/min/kg
- Vd [50]: 1.1 L/kg
- IC50 [51]: 6400 nM
- solubility [52]: 14 µg/mL (≈ 33.8 µM)
- IC50 [53]: > 50000 nM
- IC50 [54]: > 50000 nM
- IC50 [55]: > 2000 nM
- remaining at 10 min, 0.5 µM [56]: 7%
